# Reference: patent US20250101436A1, “APTAMERS AND SMALL MOLECULE LIGANDS” (MeiraGTx UK II Limited, priority 2021, published 2025)
# Tested on: luciferase gene expression in HEK 293 cells in response to Comp. 004
# Test: Screen of riboswitch constructs with 12C6-1 variant aptamers (libraries N1-N5) against Comp. 004, luciferase in HEK 293 cells
# Format: cell-based, human
# Settings: library N1 (J2-4), HEK 293, 25 M [sic] Comp. 004
# Text: Cloning of riboswitch constructs containing 12C6-1 variant aptamer sequences: 12C6-1 aptamer sequence was used as template, and nucleobases were randomized at certain position in the sequence. Aptamers incorporating random mutagenesis were synthesized by Integrated DNA Technologies, Inc. Golden Gate cloning strategy (New England Biolabs, NEB) was used to clone the synthesized aptamer sequences into intron-exon-intron cassette to replace the 12C6-1 aptamer in the Luci-12C6-1 riboswitch construct, generating riboswitch constructs containing variant aptamer sequences.
# To further improve the riboswitch activity in responding to Comp. 004 and related compounds, the aptamer sequence 12C6-1 was subject to mutagenesis to generate aptamer variants, and the riboswitches containing the variant aptamers were screened against Comp. 004 for the ones that have improved dynamic range of induced gene expression (the fold induction), in comparison with the fold induction by parental riboswitch construct Luci-12C6-1. […] These loop or junction region alone or together with stem region in proximity were chosen for random mutagenesis to generate riboswitches with re-engineered aptamer sequences with improved activity.
# Five aptamer libraries N1, N2, N3, N4 and N5 were generated by randomizing nucleotides at positions in J2-4, J2-3/J3-3a/J3a-2/P3, L3a, J4-5/J5-4/P4 and L5 regions of the parent 12C6-1 sequence, respectively (see FIGS. 3a and 3b). Single bacterial colonies were picked and plasmids containing variant riboswitch constructs were screened in HEK 293 cells for improved gene regulation activity in response to 25 µM Comp. 004 as compared to parent riboswitch construct Luci-12C6-1.
row,Substance,Fold (induction of luciferase gene expression)
1,N1_2D1 (CTGGGGAGTCCTTCATGCGGGGC; chemistry not given here),4.38 fold
2,N1_2D2 (CTGGGGAGTCCTTCATGCGGGGC; chemistry not given here),102.23 fold
3,N1_2D3 (CTGGGGAGTCCTTCATGCGGGGC; chemistry not given here),5.40 fold
4,N1_2D5 (CTGGGGAGTCCTTCATGCGGGGC; chemistry not given here),35.71 fold
5,N1_2D6 (CTGGGGAGTCCTTCATGCGGGGC; chemistry not given here),13.57 fold
6,N1_2D7 (CTGGGGAGTCCTTCATGCGGGGC; chemistry not given here),2.16 fold
7,N1_2D9 (CTGGGGAGTCCTTCATGCGGGGC; chemistry not given here),9.74 fold
8,N1_2D10 (CTGGGGAGTCCTTCATGCGGGGC; chemistry not given here),15.53 fold
9,N1_2D11 (CTGGGGAGTCCTTCATGCGGGGC; chemistry not given here),1.96 fold
10,N1_2D12 (CTGGGGAGTCCTTCATGCGGGGC; chemistry not given here),3.26 fold
11,N1_2E2 (CTGGGGAGTCCTTCATGCGGGGC; chemistry not given here),7.86 fold
12,N1_2E3 (CTGGGGAGTCCTTCATGCGGGGC; chemistry not given here),5.79 fold
13,N1_2E4 (CTGGGGAGTCCTTCATGCGGGGC; chemistry not given here),10.44 fold
14,N1_2E5 (CTGGGGAGTCCTTCATGCGGGGC; chemistry not given here),35.05 fold
15,N1_2E6 (CTGGGGAGTCCTTCATGCGGGGC; chemistry not given here),30.39 fold
16,N1_2E7 (CTGGGGAGTCCTTCATGCGGGGC; chemistry not given here),19.91 fold
17,N1_2E8 (CTGGGGAGTCCTTCATGCGGGGC; chemistry not given here),5.81 fold
18,N1_2E9 (CTGGGGAGTCCTTCATGCGGGGC; chemistry not given here),11.27 fold
19,N1_2E10 (CTGGGGAGTCCTTCATGCGGGGC; chemistry not given here),2.86 fold
20,N1_2E11 (CTGGGGAGTCCTTCATGCGGGGC; chemistry not given here),15.45 fold
21,N1_2F1 (CTGGGGAGTCCTTCATGCGGGGC; chemistry not given here),8.34 fold
22,N1_2F3 (CTGGGGAGTCCTTCATGCGGGGC; chemistry not given here),15.56 fold
23,N1_2F4 (CTGGGGAGTCCTTCATGCGGGGC; chemistry not given here),4.74 fold

row,Substance,Fold (induction of luciferase gene expression)
1,N1_2F6 (CTGGGGAGTCCTTCATGCGGGGC; chemistry not given here),185.92 fold
2,N1_2F7 (CTGGGGAGTCCTTCATGCGGGGC; chemistry not given here),41.88 fold
3,N1_2F9 (CTGGGGAGTCCTTCATGCGGGGC; chemistry not given here),1.71 fold
4,N1_2F10 (CTGGGGAGTCCTTCATGCGGGGC; chemistry not given here),10.84 fold
5,N1_2F11 (CTGGGGAGTCCTTCATGCGGGGC; chemistry not given here),150.18 fold
6,N1_2F12 (CTGGGGAGTCCTTCATGCGGGGC; chemistry not given here),1.83 fold
7,N1_2G1 (CTGGGGAGTCCTTCATGCGGGGC; chemistry not given here),100.11 fold
8,N1_2G3 (CTGGGGAGTCCTTCATGCGGGGC; chemistry not given here),36.58 fold
9,N1_2G4 (CTGGGGAGTCCTTCATGCGGGGC; chemistry not given here),9.06 fold
10,N1_2G6 (CTGGGGAGTCCTTCATGCGGGGC; chemistry not given here),11.00 fold
11,N1_2G7 (CTGGGGAGTCCTTCATGCGGGGC; chemistry not given here),2.06 fold
12,N1_2G8 (CTGGGGAGTCCTTCATGCGGGGC; chemistry not given here),8.46 fold
13,N1_2G9 (CTGGGGAGTCCTTCATGCGGGGC; chemistry not given here),30.93 fold
14,N1_2G10 (CTGGGGAGTCCTTCATGCGGGGC; chemistry not given here),4.40 fold
15,N1_2H1 (CTGGGGAGTCCTTCATGCGGGGC; chemistry not given here),9.41 fold
16,N1_2H2 (CTGGGGAGTCCTTCATGCGGGGC; chemistry not given here),2.85 fold
17,N1_2H5 (CTGGGGAGTCCTTCATGCGGGGC; chemistry not given here),1.62 fold
18,N1_2H7 (CTGGGGAGTCCTTCATGCGGGGC; chemistry not given here),1.16 fold
19,N1_2H8 (CTGGGGAGTCCTTCATGCGGGGC; chemistry not given here),1.45 fold
20,N1_2H9 (CTGGGGAGTCCTTCATGCGGGGC; chemistry not given here),1.91 fold
21,N1_2H10 (CTGGGGAGTCCTTCATGCGGGGC; chemistry not given here),16.82 fold
22,N1_2H11 (CTGGGGAGTCCTTCATGCGGGGC; chemistry not given here),2.83 fold

# Same assay, conditions: library N2 variant aptamers (J2-3, P3-J3-3a, J3a-2 randomized) of 12C6-1 in riboswitch constructs; in response to Comp. 004; HEK 293 cells
row,Substance,Fold (induction of luciferase gene expression)
1,N2_2A1 (CTGGGGAGTCCTTCATGC; chemistry not given here),1.0 fold
2,N2_2A2 (CTGGGGAGTCCTTCATGC; chemistry not given here),0.7 fold
3,N2_2A3 (CTGGGGAGTCCTTCATGC; chemistry not given here),0.8 fold
4,N2_2A5 (CTGGGGAGTCCTTCATGC; chemistry not given here),1.0 fold
5,N2_2A6 (CTGGGGAGTCCTTCATGC; chemistry not given here),1.2 fold
6,N2_2A7 (CTGGGGAGTCCTTCATGC; chemistry not given here),0.9 fold
7,N2_2A8 (CTGGGGAGTCCTTCATGC; chemistry not given here),1.0 fold
8,N2_2A9 (CTGGGGAGTCCTTCATGC; chemistry not given here),1.1 fold
9,N2_2A10 (CTGGGGAGTCCTTCATGC; chemistry not given here),1.1 fold
10,N2_2A11 (CTGGGGAGTCCTTCATGC; chemistry not given here),1.1 fold
11,N2_2A12 (CTGGGGAGTCCTTCATGC; chemistry not given here),1.1 fold
12,N2_2B1 (CTGGGGAGTCCTTCATGC; chemistry not given here),1.0 fold
13,N2_2B3 (CTGGGGAGTCCTTCATGC; chemistry not given here),1.2 fold
14,N2_2B4 (CTGGGGAGTCCTTCATGC; chemistry not given here),0.8 fold
15,N2_2B5 (CTGGGGAGTCCTTCATGC; chemistry not given here),1.0 fold
16,N2_2B6 (CTGGGGAGTCCTTCATGC; chemistry not given here),0.8 fold
